Results from ChEMBL document CHEMBL1671771, “Bismuth heterocycles based on a diphenyl sulfone scaffold: synthesis and substituent effect on the antifungal activity against Saccharomyces cerevisiae” (Eur J Med Chem, 2011).

Tested on: Saccharomyces cerevisiae
Assay: Antifungal activity against Saccharomyces cerevisiae W303-1A at 30 mM after 48 hrs
Assay type: functional, organism-based

| Substance | inhibition zone (IZ) [mm] |
| --- | --- |
| 10-Chloro-2-methylphenothiabismine 5,5-dioxide | 14 |
| 10-(4-Nitrobenzoyloxy)phenothiabismine 5,5-dioxide | 17 |
| 4,10-Dichlorophenothiabismine 5,5-dioxide | 10 |
| tert-butyl-[2-[tert-butyl(dimethyl)silyl]oxy-10-chloro-5,5-dioxo-benzo[b][1,4]benzothiabismin-8-yl]oxy-dimethyl-silane | 0 |
| 10-(Pyrrolidinedithiocarbamoyl)phenothiabismine 5,5-dioxide | 0 |
| 10-(4-Dimethylaminobenzoyloxy)phenothiabismine 5,5-dioxide | 13 |
| 10-Chloro-2-phenylphenothiabismine 5,5-dioxide | 0 |
| 10-chlorobenzo[b][1,4]benzothiabismine 5,5-dioxide | 18 |
| 10-Chloro-2-methoxyphenothiabismine 5,5-dioxide | 11 |
| 10-Chloro-2-fluorophenothiabismine 5,5-dioxide | 17 |
| 10-Chloro-2-trifluoromethylphenothiabismine 5,5-dioxide | 11 |
| 10-(N,N-Diethyldithiocarbamoyl)phenothiabismine 5,5-dioxide | 0 |
| 1,10-Dichlorophenothiabismine 5,5-dioxide | 13 |
| 2,8-Dihydroxy-10-chlorophenothiabismine 5,5-dioxide | 8 |
| 10-Chloro-2-dimethylaminophenothiabismine 5,5-dioxide | 7 |
| 10-Chloro-2-tert-butylphenothiabismine 5,5-dioxide | 0 |
| 2,10-Dichlorophenothiabismine 5,5-dioxide | 13 |
| 10-Chloro-3-methylphenothiabismine 5,5-dioxide | 8 |
